Toxic doses and inconclusive results are not listed.
Tested on: L1210 leukemia ip in BDF1 mice, survival T/C
Test: NCI In Vivo Anticancer Drug Screen. Data for tumor model L1210 Leukemia (intraperitoneal) in B6D2F1 (BDF1) mice
Settings: endpoint: mean survival time, higher = longer survival
How it was run: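 Read-out is survival time, reported as the treated-group measurement over the vehicle-control measurement.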

[1] = dose: 100.0 mg/kg/injection, schedule: Q01DX009 (ip), vehicle: Klucel (hydroxypropylcellulose) (HPC)
[2] = dose: 100.0 mg/kg/injection, schedule: Q04DX003 (ip), vehicle: Klucel (hydroxypropylcellulose) (HPC)
[3] = dose: 200.0 mg/kg/injection, schedule: Q01DX009 (ip), vehicle: Klucel (hydroxypropylcellulose) (HPC)
[4] = dose: 200.0 mg/kg/injection, schedule: Q04DX003 (ip), vehicle: Klucel (hydroxypropylcellulose) (HPC)
[5] = dose: 400.0 mg/kg/injection, schedule: Q01DX009 (ip), vehicle: Klucel (hydroxypropylcellulose) (HPC)
[6] = dose: 400.0 mg/kg/injection, schedule: Q04DX003 (ip), vehicle: Klucel (hydroxypropylcellulose) (HPC)
[7] = dose: 100.0 mg/kg/injection, schedule: Q01DX001 (ip), vehicle: saline
[8] = dose: 200.0 mg/kg/injection, schedule: Q01DX001 (ip), vehicle: saline
[9] = dose: 400.0 mg/kg/injection, schedule: Q01DX001 (ip), vehicle: saline
[10] = dose: 50.0 mg/kg/injection, schedule: Q01DX001 (ip), vehicle: saline
[11] = dose: 100.0 mg/kg/injection, schedule: Q01DX009 (ip), vehicle: saline
[12] = dose: 100.0 mg/kg/injection, schedule: Q04DX003 (ip), vehicle: saline
[13] = dose: 200.0 mg/kg/injection, schedule: Q01DX009 (ip), vehicle: saline
[14] = dose: 200.0 mg/kg/injection, schedule: Q04DX003 (ip), vehicle: saline
[15] = dose: 400.0 mg/kg/injection, schedule: Q04DX003 (ip), vehicle: saline
[16] = dose: 100.0 mg/kg/injection, schedule: Q01DX009 (ip), vehicle: saline with Tween-80
[17] = dose: 100.0 mg/kg/injection, schedule: Q04DX003 (ip), vehicle: saline with Tween-80
[18] = dose: 200.0 mg/kg/injection, schedule: Q01DX009 (ip), vehicle: saline with Tween-80
[19] = dose: 200.0 mg/kg/injection, schedule: Q04DX003 (ip), vehicle: saline with Tween-80
[20] = dose: 400.0 mg/kg/injection, schedule: Q01DX009 (ip), vehicle: saline with Tween-80
[21] = dose: 400.0 mg/kg/injection, schedule: Q04DX003 (ip), vehicle: saline with Tween-80

Structure (SMILES): CCCCn1c(=S)[nH]c2ccccc2c1=O
- T/C [1]: 100 % of control
- T/C [2]: 98 % of control
- T/C [3]: 94 % of control
- T/C [4]: 95 % of control
- T/C [5]: 96 % of control
- T/C [6]: 92 % of control

Structure (SMILES): CN=C(NC)c1ccc(NC(=O)Nc2ccc(NC(=O)Nc3ccc(C(=NC)NC)cc3)cc2)cc1
- T/C (dose: 3.94 mg/kg/injection, schedule: Q01DX Z (ip), vehicle: saline): 108 % of control
- T/C (dose: 4.0 mg/kg/injection, schedule: Q01DX Z (ip), vehicle: carboxymethylcellulose (CMC)): 107 % of control
- T/C (dose: 5.9 mg/kg/injection, schedule: Q01DX Z (ip), vehicle: saline): 114 % of control
- T/C (dose: 8.0 mg/kg/injection, schedule: Q01DX Z (ip), vehicle: carboxymethylcellulose (CMC)): 121 % of control
- T/C (dose: 8.86 mg/kg/injection, schedule: Q01DX Z (ip), vehicle: saline): 120 % of control
- T/C (dose: 30.0 mg/kg/injection, schedule: Q01DX Z (ip), vehicle: carboxymethylcellulose (CMC)): 101 % of control
- T/C (dose: 45.0 mg/kg/injection, schedule: Q01DX Z (ip), vehicle: saline): 115 % of control

Structure (SMILES): O=NN(CCBr)C(=O)Nc1ccccc1
- T/C (dose: 111.0 mg/kg/injection, schedule: Q01DX001 (ip), vehicle: carboxymethylcellulose (CMC)): 153 % of control
- T/C (dose: 222.0 mg/kg/injection, schedule: Q01DX001 (ip), vehicle: carboxymethylcellulose (CMC)): 161 % of control
- T/C (dose: 444.0 mg/kg/injection, schedule: Q01DX001 (ip), vehicle: carboxymethylcellulose (CMC)): 124 % of control

Structure (SMILES): CCCc1c(CC)c(Cl)nc2ccccc12
- T/C [7]: 105 % of control
- T/C [8]: 103 % of control
- T/C [9]: 91 % of control

Structure (SMILES): O=C(O)CNC(=O)c1ccc(NC(=O)CBr)cc1
- T/C [10]: 104 % of control
- T/C [7]: 104 % of control
- T/C [8]: 109 % of control

Structure (SMILES): Cc1cc(C)c(CCN(C)C)c(C)c1
- T/C [10]: 101 % of control
- T/C [7]: 97 % of control
- T/C [8]: 91 % of control

Structure (SMILES): CCN(CC)Cc1cc(Nc2c(C)cnc3cc(Cl)ccc23)ccc1O
- T/C (dose: 25.0 mg/kg/injection, schedule: Q01DX009 (ip), vehicle: saline): 94 % of control
- T/C (dose: 50.0 mg/kg/injection, schedule: Q01DX009 (ip), vehicle: saline): 90 % of control

Structure (SMILES): O=C(CSc1ccccc1)NCc1cnccn1
- T/C [11]: 103 % of control
- T/C [12]: 92 % of control
- T/C [13]: 102 % of control
- T/C [14]: 105 % of control
- T/C [15]: 105 % of control

Structure (SMILES): O=[N+]([O-])c1c(Cl)ccc2c(Cl)ccnc12
- T/C (dose: 100.0 mg/kg/injection, schedule: Q04DX003 (ip), vehicle: gum acacia): 111 % of control
- T/C (dose: 200.0 mg/kg/injection, schedule: Q04DX003 (ip), vehicle: gum acacia): 91 % of control

Structure (SMILES): O=c1cc(-c2ccccc2)ss1
- T/C [1]: 100 % of control
- T/C [16]: 101 % of control
- T/C [17]: 102 % of control
- T/C [3]: 102 % of control
- T/C [18]: 97 % of control
- T/C [19]: 102 % of control
- T/C [5]: 105 % of control
- T/C [20]: 96 % of control
- T/C [21]: 103 % of control

Structure (SMILES): O=C1OC(c2ccc([N+](=O)[O-])cc2)=N/C1=C\c1cccc2ccccc12
- T/C (dose: 100.0 mg/kg/injection, schedule: Q01DX009 (ip), vehicle: other): 96 % of control
- T/C (dose: 200.0 mg/kg/injection, schedule: Q01DX009 (ip), vehicle: other): 88 % of control
- T/C (dose: 400.0 mg/kg/injection, schedule: Q01DX009 (ip), vehicle: other): 93 % of control

Structure (SMILES): CC1(C)CCc2c(O)c(N=O)c3ccccc3c2O1
- T/C (dose: 100.0 mg/kg/injection, schedule: Q01DX001 (ip), vehicle: saline with Tween-80): 103 % of control
- T/C (dose: 200.0 mg/kg/injection, schedule: Q01DX001 (ip), vehicle: saline with Tween-80): 95 % of control
- T/C (dose: 400.0 mg/kg/injection, schedule: Q01DX001 (ip), vehicle: saline with Tween-80): 95 % of control

Structure (SMILES): CC(=O)OCC(=O)[C@@]1(O)CC[C@H]2[C@@H]3CCC4=CC(=O)CC[C@]4(C)[C@H]3[C@@H](O)C[C@@]21C
- T/C (dose: 1.13 mg/kg/injection, schedule: Q01DX Z (sc), vehicle: steriod suspending solution): 102 % of control
- T/C (dose: 2.25 mg/kg/injection, schedule: Q01DX Z (sc), vehicle: steriod suspending solution): 107 % of control
- T/C (dose: 4.5 mg/kg/injection, schedule: Q01DX Z (sc), vehicle: steriod suspending solution): 102 % of control
- T/C (dose: 9.0 mg/kg/injection, schedule: Q01DX Z (sc), vehicle: steriod suspending solution): 101 % of control
- T/C (dose: 25.0 mg/kg/injection, schedule: Q01DX Z (sc), vehicle: steriod suspending solution): 87 % of control
- T/C (dose: 50.0 mg/kg/injection, schedule: Q01DX Z (sc), vehicle: steriod suspending solution): 102 % of control
- T/C [16]: 105 % of control
- T/C (dose: 100.0 mg/kg/injection, schedule: Q01DX Z (sc), vehicle: steriod suspending solution): 106 % of control
- T/C [17]: 104 % of control
- T/C [18]: 104 % of control
- T/C (dose: 200.0 mg/kg/injection, schedule: Q01DX009 (sc), vehicle: other): 104 % of control
- T/C (dose: 200.0 mg/kg/injection, schedule: Q01DX Z (sc), vehicle: steriod suspending solution): 110 % of control
- T/C [19]: 99 % of control
- T/C (dose: 400.0 mg/kg/injection, schedule: Q01DX001 (sc), vehicle: steriod suspending solution): 92 % of control
- T/C [20]: 98 % of control
- T/C (dose: 400.0 mg/kg/injection, schedule: Q01DX009 (sc), vehicle: other): 102 % of control
- T/C [21]: 100 % of control
- T/C (dose: 600.0 mg/kg/injection, schedule: Q01DX009 (sc), vehicle: other): 96 % of control
- T/C (dose: 800.0 mg/kg/injection, schedule: Q01DX001 (sc), vehicle: steriod suspending solution): 97 % of control
- T/C (dose: 800.0 mg/kg/injection, schedule: Q01DX009 (sc), vehicle: other): 101 % of control
- T/C (dose: 1200.0 mg/kg/injection, schedule: Q01DX001 (sc), vehicle: steriod suspending solution): 101 % of control
- T/C (dose: 1600.0 mg/kg/injection, schedule: Q01DX001 (sc), vehicle: steriod suspending solution): 100 % of control

Structure (SMILES): COc1ccc(OC)c(NC(=O)Nc2ccc(OC)cc2OC)c1
- T/C [11]: 110 % of control
- T/C [13]: 113 % of control
- T/C (dose: 400.0 mg/kg/injection, schedule: Q01DX009 (ip), vehicle: saline): 108 % of control

Structure (SMILES): Nc1ccc(/C=C/c2ccc(N)cc2)cc1
- T/C [2]: 97 % of control
- T/C [4]: 94 % of control
- T/C [6]: 94 % of control

Structure (SMILES): C[n+]1c(/C=C/c2ccc(O)c3ccccc23)ccc2ccccc21
- T/C (dose: 75.0 mg/kg/injection, schedule: Q01DX001 (ip), vehicle: carboxymethylcellulose (CMC)): 92 % of control
- T/C (dose: 150.0 mg/kg/injection, schedule: Q01DX001 (ip), vehicle: carboxymethylcellulose (CMC)): 97 % of control

Structure (SMILES): CC(CN)NCc1ccccc1 (stereo unspecified)
- T/C [11]: 96 % of control
- T/C [12]: 103 % of control
- T/C [13]: 94 % of control
- T/C [14]: 103 % of control
- T/C [15]: 95 % of control

Structure (SMILES): CNS(=O)(=O)c1ccc(Cl)cc1
- T/C [7]: 95 % of control
- T/C [16]: 118 % of control
- T/C [11]: 98 % of control
- T/C [8]: 101 % of control
- T/C [18]: 94 % of control
- T/C [9]: 96 % of control

Structure (SMILES): O=C(Oc1ccccc1[N+](=O)[O-])c1ccc(Cl)c(Cl)c1
- T/C (dose: 100.0 mg/kg/injection, schedule: Q04DX002 (ip), vehicle: Klucel (hydroxypropylcellulose) (HPC)): 90 % of control
- T/C (dose: 200.0 mg/kg/injection, schedule: Q04DX002 (ip), vehicle: Klucel (hydroxypropylcellulose) (HPC)): 97 % of control
- T/C (dose: 400.0 mg/kg/injection, schedule: Q04DX002 (ip), vehicle: Klucel (hydroxypropylcellulose) (HPC)): 100 % of control

Structure (SMILES): CC(=O)Nc1nc(-c2ccccc2)c(CCC=O)c(=O)[nH]1
- T/C (dose: 50.0 mg/kg/injection, schedule: Q01DX001 (ip), vehicle: Klucel (hydroxypropylcellulose) (HPC)): 93 % of control
- T/C (dose: 100.0 mg/kg/injection, schedule: Q01DX001 (ip), vehicle: Klucel (hydroxypropylcellulose) (HPC)): 96 % of control
- T/C (dose: 200.0 mg/kg/injection, schedule: Q01DX001 (ip), vehicle: Klucel (hydroxypropylcellulose) (HPC)): 104 % of control
